Measurements published in PMC11280411, “Phytochemical Investigation of Carex praecox Schreb. and ACE-Inhibitory Activity of Oligomer Stilbenes of the Plant” (Molecules, 2024).
Read-outs that look alike come from different tables or passages of the source. One block for each compound: values may come before it.

What was measured:
ACE from rabbit lung = target: T1, ACE from rabbit lung (Oryctolagus cuniculus, UniProt P12822); test: ACE-inhibitory assay (ACE Activity Assay Kit, fluorescence); format: biochemical; settings: for inhibition at 90 µM: read-out: Inhibition at 90 μM (%) ± SD
T1 construct: ACE from rabbit lung, A6778, Sigma-Aldrich, USA; purchased Sigma-Aldrich A6778; host or cells: rabbit lung (tissue-derived)
T1 sequence (P12822 34-1310): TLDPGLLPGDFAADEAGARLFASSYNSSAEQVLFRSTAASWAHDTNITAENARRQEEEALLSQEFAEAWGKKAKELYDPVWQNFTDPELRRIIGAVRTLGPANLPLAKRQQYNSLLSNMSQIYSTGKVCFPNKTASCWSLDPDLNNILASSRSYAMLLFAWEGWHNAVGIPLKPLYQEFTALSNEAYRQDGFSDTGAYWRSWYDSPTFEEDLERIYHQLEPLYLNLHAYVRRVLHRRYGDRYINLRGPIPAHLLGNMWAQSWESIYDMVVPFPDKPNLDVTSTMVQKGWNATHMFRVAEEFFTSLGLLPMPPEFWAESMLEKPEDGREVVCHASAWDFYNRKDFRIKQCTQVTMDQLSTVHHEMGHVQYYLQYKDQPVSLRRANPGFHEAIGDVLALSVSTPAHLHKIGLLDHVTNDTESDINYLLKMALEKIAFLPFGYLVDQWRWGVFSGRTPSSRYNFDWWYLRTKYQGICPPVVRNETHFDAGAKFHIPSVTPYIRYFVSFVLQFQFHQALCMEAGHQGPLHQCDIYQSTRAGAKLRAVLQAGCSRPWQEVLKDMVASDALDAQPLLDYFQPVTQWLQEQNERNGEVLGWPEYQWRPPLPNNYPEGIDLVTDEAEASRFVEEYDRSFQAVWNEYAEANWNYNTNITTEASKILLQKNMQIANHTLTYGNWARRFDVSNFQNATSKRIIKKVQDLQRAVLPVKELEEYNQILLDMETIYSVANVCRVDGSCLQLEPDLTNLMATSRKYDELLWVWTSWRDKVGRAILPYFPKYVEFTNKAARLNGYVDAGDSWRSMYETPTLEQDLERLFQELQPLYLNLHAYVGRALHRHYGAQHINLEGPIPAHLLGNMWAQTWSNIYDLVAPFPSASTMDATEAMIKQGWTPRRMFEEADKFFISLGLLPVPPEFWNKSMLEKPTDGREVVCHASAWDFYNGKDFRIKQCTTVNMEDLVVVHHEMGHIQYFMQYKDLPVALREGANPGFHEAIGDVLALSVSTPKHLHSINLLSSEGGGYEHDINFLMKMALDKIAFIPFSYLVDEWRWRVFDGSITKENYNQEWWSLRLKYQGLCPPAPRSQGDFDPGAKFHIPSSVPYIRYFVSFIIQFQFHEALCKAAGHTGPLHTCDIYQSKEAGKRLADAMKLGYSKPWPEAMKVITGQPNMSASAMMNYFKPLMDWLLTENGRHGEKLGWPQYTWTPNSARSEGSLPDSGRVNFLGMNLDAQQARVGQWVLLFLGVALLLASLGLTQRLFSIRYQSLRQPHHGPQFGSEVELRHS

Colo 205 = test: Antiproliferative MTT assay; format: cell-based, human; settings: doxorubicin-sensitive cells; for IC50: read-out: IC50 (μM) ± SD, Colo 205
[1] = test system: Colo 320/MDR-LRP expressing ABCB1; test: Antiproliferative MTT assay; settings: for IC50: Homo sapiens, COLO 320, 72 h, read-out: IC50 (μM) ± SD, Colo 320
[2] = test system: Colo 320/MDR-LRP expressing ABCB1
velvetleaf seeds = test system: velvetleaf seeds; design: method as in doi:10.1007/BF02266955; settings: cited from earlier work
[3] = target: T2, N-domain of rabbit lung ACE (Oryctolagus cuniculus, UniProt P12822); test: ACE domain-specific inhibition, N-domain (FRET substrate Abz-SDK(Dnp)P-OH); format: biochemical; settings: for Inhibition (%) ± SD, N-Domain: Abz-SDK(Dnp)P-OH [S] = 72 μM
T2 construct: on the C- and N-domain of a rabbit lung ACE using the FRET substrates; from tissue; host or cells: rabbit lung
T2 sequence (P12822 34-1310): T1 sequence (P12822 34-1310)
Protocol: (§1) ACE domain-specific inhibition studies were performed based on previously reported methods (Carmona et al., 2006 [57]; Lunow et al., 2015 [58]). Fluorescence resonance energy transfer (FRET) substrates, Abz-SDK(Dnp)P-OH and Abz-LFK(Dnp)-OH were used for the N-domain and C-domain, respectively. […] Briefly, 40 μL of assay buffer and 60 μL of the FRET substrate solutions were preincubated for 10 min at 37 °C, with the reaction started by adding 20 μL of diluted ACE solution (5 μL ACE + 15 μL 0.1 mol/L TRIS buffer) and fluorescence measured at λex/λem = 290/450 nm every minute at 37 °C for 30 min. The corresponding KM of the FRET substrates, determined using the Michaelis–Menten equation, was used as the substrate concentration of the FRET substrates used in percent inhibition studies. The inhibitory activity of 16 on both domains was determined as described above with the 40 μL solution containing the inhibitor (inhibitor in DMSO–Assay buffer, 1:9). The control samples, which correspond to 100% enzyme activity, were prepared by replacing the inhibitor solution with TRIS buffer. Dose–effect studies on 16 using the FRET substrates were used to determine the IC50 of this compound on both ACE domains. All experiments were performed in triplicates. The ACE-inhibitory activity was calculated using the following equation:(%) = (Ab − Aa) − (Cb − Ca)/(Ab − Aa) × 100(2) where Aa is the absorbance of control wells at 0 min; Ab is the absorbance of control wells at 15 min; Ca is the absorbance of the inhibitor wells at 0 min; and Cb is the absorbance of inhibitor wells at 15 min.

[4] = target: T3, C-domain of rabbit lung ACE (Oryctolagus cuniculus, UniProt P12822); test: ACE domain-specific inhibition, C-domain (FRET substrate Abz-LFK(Dnp)-OH); format: biochemical; settings: for Inhibition (%) ± SD, C-Domain: Abz-LFK(Dnp)-OH [S] = 21 μM
T3 construct: on the C- and N-domain of a rabbit lung ACE using the FRET substrates; from tissue; host or cells: rabbit lung
T3 sequence (P12822 34-1310): T1 sequence (P12822 34-1310)
Protocol: as §1

HIV transcription = test system: HIV transcription; design: method as in PMID 36975214; settings: T cells; cited from earlier work

Compound: Oc1ccc(/C=C/c2cc(O)cc3c2C(c2cc(O)cc(O)c2)C(c2ccc(O)cc2)O3)cc1 (stereo not drawn) [Compound 14, trans-ε-viniferin]
IC50 (ACE from rabbit lung; ACE from rabbit lung): 14 ± 0.7 µM | inhibition at 90 µM (ACE from rabbit lung): 107 ± 1.1% | IC50 (Colo 205; Homo sapiens, COLO 205, 72 h): > 100 µM | IC50 [1]: > 100 µM

IC50 (ACE from rabbit lung; ACE from rabbit lung): 14.8 ± 0.8 µM | Inhibition at 90 μM (%) ± SD (ACE from rabbit lung; ACE from rabbit lung, 90 μM): 98.5 ± 1.2% | IC50 (Colo 205; 72 h): > 100 µM | IC50 [2]: > 100 µM
Compound: kobophenol A [Compound 17]

Compound: O=c1ccoc2cc(O)cc(O)c12 [Compound 22, 5,7-dihydroxychromone]
inhibition of germination (velvetleaf seeds): inhibited the germination of velvetleaf seeds

Compound: Oc1ccc(C2Oc3cc(O)cc4c3C2c2cc(O)cc(O)c2C(c2ccc(O)cc2)C4C2c3cc(O)cc4c3C(c3cc(O)cc(O)c3C2c2ccc(O)cc2)C(c2ccc(O)cc2)O4)cc1 (single isomer, unassigned; (-)) [Compound 16, (–)-hopeaphenol]
IC50 (ACE from rabbit lung; ACE from rabbit lung): 7.7 ± 0.9 µM | inhibition at 90 µM (ACE from rabbit lung; ACE from rabbit lung, 90 μM): 103 ± 1.5% | type of ACE inhibition (enzyme-kinetic studies) (ACE from rabbit lung; Lineweaver-Burk, substrate Abz-Gly-Phe(NO2)-Pro): mixed-type inhibition | Inhibition (%) ± SD, N-Domain ([3]; inhibitor 10 μM): 42.41 ± 0.8% | Inhibition (%) ± SD, N-Domain ([3]; inhibitor 50 μM): 55.74 ± 3.2% | IC50 ([3]; rabbit lung ACE, FRET substrate Abz-SDK(Dnp)P-OH): 35.7 ± 2.3 µM | times lower affinity for the C-domain than for the N-domain ([4]; C-domain versus N-domain IC50): 10 times | Inhibition (%) ± SD, C-Domain ([4]; inhibitor 10 μM): 18.17 ± 0.5% | Inhibition (%) ± SD, C-Domain ([4]; inhibitor 50 μM): 23.39 ± 0.6% | IC50 ([4]; rabbit lung ACE, FRET substrate Abz-LFK(Dnp)-OH): > 300 µM | IC50 (μM) ± SD, Colo 205 (Colo 205; 72 h): notable antiproliferative activity | IC50 (Colo 205; Homo sapiens, COLO 205, 72 h): 1.59 ± 0.11 µM | inhibition of HIV transcription (HIV transcription): selective inhibitor of HIV transcription | IC50 [1]: 6.08 ± 0.24 µM | IC50 (μM) ± SD, Colo 320 ([1]; MTT, 72 h, doxorubicin-resistant cells expressing ABCB1): notable antiproliferative activity

Compound: bradykinin-potentiating peptide b [BPPb, reference compound]
Inhibition (%) ± SD, N-Domain ([3]; inhibitor 200 nM): 5.2 ± 0.2% | Inhibition (%) ± SD, C-Domain ([4]; inhibitor 200 nM): 83.20 ± 3.6%

Compound: N.N.[Cl][Pt][Cl] [Cisplatin, reference compound]
IC50 (Colo 205; 72 h): 53.9 ± 3.92 µM

IC50 (μM) ± SD, Colo 205 (Colo 205; 72 h): notable antiproliferative activity | IC50 (Colo 205; Homo sapiens, COLO 205, 72 h): 48.3 ± 1.54 µM | IC50 [1]: 40.4 ± 1.84 µM
Compound: Oc1ccc(/C=C/c2cc(O)cc(O)c2)cc1 [Compound 12, trans-resveratrol]
IC50 (μM) ± SD, Colo 320 [2]: notable antiproliferative activity

Compound: Oc1ccc(/C=C\c2cc(O)cc3c2C(c2cc(O)cc(O)c2)C(c2ccc(O)cc2)O3)cc1 (stereo not drawn) [Compound 13, cis-ε-viniferin]
IC50 (ACE from rabbit lung; ACE from rabbit lung): 18 ± 1.2 µM | inhibition at 90 µM (ACE from rabbit lung): 95.5 ± 2.8% | IC50 (Colo 205; Homo sapiens, COLO 205, 72 h): > 100 µM | IC50 [1]: > 100 µM

IC50 (ACE from rabbit lung; ACE from rabbit lung): 15.2 ± 0.4 µM | inhibition at 90 µM (ACE from rabbit lung; ACE from rabbit lung, 90 μM): 96.7 ± 6.3% | IC50 (Colo 205; Homo sapiens, COLO 205, 72 h): > 100 µM | IC50 [1]: > 100 µM
Compound: Oc1ccc(/C=C\c2cc(O)cc3c2[C@H](c2cc(O)cc4c2[C@H](c2cc(O)cc(O)c2)[C@@H](c2ccc(O)cc2)O4)[C@@H](c2ccc(O)cc2)O3)cc1 [Compound 15, Z-miyabenol C]

IC50 (Colo 205; Homo sapiens, COLO 205, 72 h): 0.33 ± 0.03 µM | IC50 [1]: 0.67 ± 0.06 µM
Compound: COc1cccc2c1C(=O)c1c(O)c3c(c(O)c1C2=O)C[C@@](O)(C(=O)CO)C[C@@H]3O[C@H]1C[C@H](N)[C@H](O)[C@H](C)O1 [Doxorubicin, reference compound]
